Reference: patent US7713937B2, “Synthetic peptide amides and dimeric forms thereof” (Cara Therapeutics, Inc., priority 2006, dated 2010)
Square brackets hold non-standard residues; d marks the D form. Peptide text beside a SMILES is read from it. * marks the point of attachment. Piperidin1yl(4-NH2,4-COOH) = NC1(C(=O)O)CCN(*)CC1; Homopiperazine(4-amidino) = N=C(N)N1CCCN(*)CC1; d(hArg) = N=C(N)NCCCC[C@@H](N)C(=O)O; dAgb = N=C(N)NCC[C@@H](N)C(=O)O; dAgp = N=C(N)NC[C@@H](N)C(=O)O; dDab = NCC[C@@H](N)C(=O)O; Morpholide = C1CN(*)CCO1; Inp = O=C(O)C1CCNCC1

Assays:
[1] = biological target: T1, human kappa opioid receptor (hKOR) (Homo sapiens, UniProt P41145); assay: cell-based; details: for Emax: HEK293, read-out: hKOR Efficacy(%)
T1 construct: expressed in transfected cells; host or cells: HEK-293 cells, transient transfection with Fugene6

[2] = biological target: T2, mouse kappa opioid receptor (mKOR) (Mus musculus, UniProt P33534); assay: cell-based; details: for Emax: read-out: mKOR Efficacy(%)
T2 construct: Stimulation of Endogenous Mouse Kappa-Opioid Receptor in R1.G1 Cells; host or cells: R1.G1 mouse thymoma cells
T2 sequence (P33534 whole entry): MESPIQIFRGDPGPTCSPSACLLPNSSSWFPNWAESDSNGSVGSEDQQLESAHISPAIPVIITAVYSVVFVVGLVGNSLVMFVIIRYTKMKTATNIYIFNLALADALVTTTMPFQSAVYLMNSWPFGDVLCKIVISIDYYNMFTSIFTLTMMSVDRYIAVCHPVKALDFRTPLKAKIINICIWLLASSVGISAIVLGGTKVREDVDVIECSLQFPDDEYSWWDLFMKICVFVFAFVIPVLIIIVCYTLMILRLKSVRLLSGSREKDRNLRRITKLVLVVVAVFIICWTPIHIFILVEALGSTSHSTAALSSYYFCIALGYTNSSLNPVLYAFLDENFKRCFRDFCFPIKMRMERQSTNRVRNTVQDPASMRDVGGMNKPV

T1 sequence (P41145 whole entry): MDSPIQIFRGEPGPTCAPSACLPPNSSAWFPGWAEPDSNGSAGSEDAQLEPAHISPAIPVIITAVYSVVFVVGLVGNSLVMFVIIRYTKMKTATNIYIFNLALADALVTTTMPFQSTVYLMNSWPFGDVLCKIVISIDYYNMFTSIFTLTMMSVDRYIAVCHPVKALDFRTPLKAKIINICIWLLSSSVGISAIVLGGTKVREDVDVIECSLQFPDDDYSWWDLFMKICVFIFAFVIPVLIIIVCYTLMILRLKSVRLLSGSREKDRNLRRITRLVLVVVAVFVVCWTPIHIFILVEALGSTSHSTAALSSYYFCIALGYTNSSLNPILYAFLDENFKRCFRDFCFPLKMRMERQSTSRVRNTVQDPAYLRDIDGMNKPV

| Structure (SMILES) | EC50 [1] [nM] | Emax [1] [%] | EC50 [2] [nM] | Emax [2] [%] |
| --- | --- | --- | --- | --- |
| CC(C)C[C@@H](NC(=O)[C@@H](Cc1ccccc1)NC(=O)[C@H](N)Cc1ccccc1)C(=O)N[C@H](CCCCN)C(=O)N1CCc2[nH]ncc2C1 [Compound (37), D-Phe-D-Phe-D-Leu-D-Lys-[4,5,6,7-tetrahydro-1H-pyrazolo[4,3-c]pyridine amide]] | 0.0052 | 100 | 0.0234 | 90 |
| CC(C)C[C@@H](NC(=O)[C@@H](Cc1ccccc1)NC(=O)[C@H](N)Cc1ccccc1)C(=O)N[C@H](CCCCNC(C)C)C(=O)N1CCC(N)(C(=O)O)CC1 [Compound (9), D-Phe-D-Phe-D-Leu-(ε-iPr)D-Lys-[ω(4-aminopiperidine-4-carboxylic acid)]-OH] | 0.17 | 90 | 0.078 | 96 |
| CC(C)C[C@@H](NC(=O)[C@@H](Cc1ccccc1)NC(=O)[C@H](N)Cc1ccccc1)C(=O)N[C@H](CCCN)C(=O)N1CCNC(C(=O)O)C1 (stereo partly drawn) [Compound (45), D-Phe-D-Phe-D-Leu-D-Orn-[ω(D/L-4-piperazine-2-carboxylic acid)]-OH] | 0.15 | 93 | 0.197 | 102 |
| CC(C)C[C@@H](NC(=O)[C@@H](Cc1ccccc1)NC(=O)[C@H](N)Cc1ccccc1)C(=O)N[C@H](CNC(=N)N)C(=O)N1CCCN(C(=N)N)CC1 [Compound (18), D-Phe-D-Phe-D-Leu-(β-amidino)D-Dap-[4-amidinohomopiperazine amide]] (H-[dF][dF][dL][dAgp]-{Homopiperazine(4-amidino)}) | 1.15 | 93 | 1.02 | 103 |
| CC(C)C[C@@H](NC(=O)[C@@H](Cc1ccccc1)NC(=O)[C@H](N)Cc1ccccc1)C(=O)N[C@H](CCCN)C(=O)N1CCC(N2CCC[C@H]2C(=O)O)CC1 [Compound (47), D-Phe-D-Phe-D-Leu-D-Orn-[N-(4-piperidinyl)-L-proline]-OH] | 0.17 | 92 | 0.085 | 99 |
| CC(C)C[C@@H](NC(=O)[C@@H](Cc1ccccc1)NC(=O)[C@H](N)Cc1ccccc1)C(=O)N[C@H](CCCCN)C(=O)N1CCN(S(=O)(=O)c2ccccc2)CC1 [Compound (69), D-Phe-D-Phe-D-Leu-D-Lys-[1-(phenylsulfonyl)piperazine amide]] | 0.011 | 101 | 0.53 | 87 |
| CC(C)C[C@@H](NC(=O)[C@@H](Cc1ccccc1)NC(=O)[C@H](N)Cc1ccccc1)C(=O)N[C@H](CCCCN)C(=O)N1CCC(n2cc(-c3ccccc3)[nH]c2=O)CC1 [Compound (30)] | – | 95 | 0.129 | 88 |
| CC(C)C[C@@H](NC(=O)[C@@H](Cc1ccccc1)NC(=O)[C@H](N)Cc1ccccc1)C(=O)N[C@H](CCCNC(C)C)C(=O)N1CCCNCC1 [Compound (61), D-Phe-D-Phe-D-Leu-(δ-iPr)D-Orn-[homopiperazine amide]] | 0.07 | 98 | 0.033 | 96 |
| CNCCC[C@@H](NC(=O)[C@@H](CC(C)C)NC(=O)[C@@H](Cc1ccccc1)NC(=O)[C@H](N)Cc1ccccc1)C(=O)N1CCCNCC1 [Compound (60), D-Phe-D-Phe-D-Leu-(δ-Me)D-Orn-[homopiperazine amide]] | 0.09 | 106 | 0.045 | 95 |
| CC(C)C[C@@H](NC(=O)[C@@H](Cc1ccccc1)NC(=O)[C@H](N)Cc1ccccc1)C(=O)N[C@H](CCCCN)C(=O)N1CCN(S(C)(=O)=O)CC1 [Compound (68), D-Phe-D-Phe-D-Leu-D-Lys-[1-(methylsulfonyl)piperazine amide]] | 0.0073 | 100 | 0.246 | 82 |
| CC(C)C[C@@H](NC(=O)[C@@H](Cc1ccccc1)NC(=O)[C@H](N)Cc1ccccc1)C(=O)N[C@H](CCN)C(=O)N1CCCN(C(=N)N)CC1 [Compound (22), D-Phe-D-Phe-D-Leu-D-Dbu-[4-amidinohomopiperazine amide]] (H-[dF][dF][dL][dDab]-{Homopiperazine(4-amidino)}) | 0.18 | 86 | 0.095 | 103 |
| CC(C)C[C@@H](NC(=O)[C@@H](Cc1ccccc1)NC(=O)[C@H](N)Cc1ccccc1)C(=O)N[C@H](CCCN)C(=O)NCCN1CCN(CC(N)=O)CC1 [Compound (49), D-Phe-D-Phe-D-Leu-D-Orn-[4-(2-aminoethyl)-1-carboxymethyl-piperazine]-NH2] | 0.22 | 96 | 0.115 | 96 |
| CC(C)C[C@@H](NC(=O)[C@@H](Cc1ccccc1)NC(=O)[C@H](N)Cc1ccccc1)C(=O)N[C@H](CCCCN)C(=O)N1CCC2(CC1)C(=O)NCN2c1ccccc1 [Compound (33), D-Phe-D-Phe-D-Leu-D-Lys-[1-phenyl-1,3,8-triazaspiro[4.5]decan-4-one amide]] | – | 101 | – | 86 |
| CC(C)C[C@@H](NC(=O)[C@@H](Cc1ccccc1)NC(=O)[C@H](N)Cc1ccccc1)C(=O)N[C@H](CCCCNC(=N)N)C(=O)N1CCC(N)(C(=O)O)CC1 [Compound (8), D-Phe-D-Phe-D-Leu-D-Har-[ω(4-aminopiperidine-4-carboxylic acid)]-OH] (H-[dF][dF][dL][d(hArg)]-{Piperidin1yl(4-NH2,4-COOH)}) | 0.12 | 96 | 0.043 | 90 |
| CC(C)C[C@@H](NC(=O)[C@@H](Cc1ccccc1)NC(=O)[C@H](N)Cc1ccccc1)C(=O)N[C@H](CCCCN)C(=O)N1CCC2(CCNC2=O)CC1 [Compound (25), D-Phe-D-Phe-D-Leu-D-Lys-[2,8-diazaspiro[4,5]decan-1-one amide]] | 0.0027 | 101 | 0.0314 | 82 |
| Cc1nnc(C)n1C1CCN(C(=O)[C@@H](CCCCN)NC(=O)[C@@H](CC(C)C)NC(=O)[C@@H](Cc2ccccc2)NC(=O)[C@H](N)Cc2ccccc2)CC1 [Compound (31), D-Phe-D-Phe-D-Leu-D-Lys-[4-(3,5-dimethyl-4H-1,2,4-triazol-4-yl)piperidine amide]] | 0.0042 | 95 | 0.0216 | 86 |
| Cc1cnc(CNC(=O)[C@@H](CCCCN)NC(=O)[C@@H](CC(C)C)NC(=O)[C@@H](Cc2ccccc2)NC(=O)[C@H](N)Cc2ccccc2)cn1 [Compound (35), D-Phe-D-Phe-D-Leu-D-Lys-[(5-methylpyrazin-2-yl)methyl amide]] | 0.0064 | – | 0.0359 | – |
| CC(C)C[C@@H](NC(=O)[C@@H](Cc1ccccc1)NC(=O)[C@H](N)Cc1ccccc1)C(=O)N[C@H](CCCN)C(=O)N1CCC(CC(N)C(=O)O)CC1 (stereo partly drawn) [Compound (44), D-Phe-D-Phe-D-Leu-D-Orn-[ω(D/L-2-amino-3-(4-N-piperidinyl)propionic acid)]-OH] | 0.13 | 104 | 0.028 | 102 |
| CC(C)C[C@@H](NC(=O)[C@@H](Cc1ccccc1)NC(=O)[C@H](N)Cc1ccccc1)C(=O)N[C@H](CCNC(=N)N)C(=O)N1CCC(N)(C(=O)O)CC1 [Compound (11), D-Phe-D-Phe-D-Leu-D-Nar-[ω(4-aminopiperidine-4-carboxylic acid)]-OH] (H-[dF][dF][dL][dAgb]-{Piperidin1yl(4-NH2,4-COOH)}) | 0.15 | 82 | 0.052 | 92 |
| CNCCCC[C@@H](NC(=O)[C@@H](CC(C)C)NC(=O)[C@@H](Cc1ccccc1)NC(=O)[C@H](N)Cc1ccccc1)C(=O)N1CCCN(C(=N)N)CC1 [Compound (1), D-Phe-D-Phe-D-Leu-(ε-Me)D-Lys-[4-amidinohomopiperazine amide]] | 0.15 | 97 | 0.043 | 103 |
| CC(C)C[C@@H](NC(=O)[C@@H](Cc1ccccc1)NC(=O)[C@H](N)Cc1ccccc1)C(=O)N[C@H](CCCN)C(=O)N1CCCNCC1 [Compound (56), D-Phe-D-Phe-D-Leu-D-Orn-[homopiperazine amide]] | 0.22 | – | 0.08 | 100 |
| CC(C)C[C@@H](NC(=O)[C@@H](Cc1ccccc1)NC(=O)[C@H](N)Cc1ccccc1)C(=O)N[C@H](CCCCN)C(=O)N1CCC2(CC1)NC(=O)NC2=O [Compound (27), D-Phe-D-Phe-D-Leu-D-Lys-[1,3,8-triazaspiro[4,5]decane-2,4-dione amide]] | < 0.001 | 88 | 0.0056 | 87 |
| CC(C)C[C@@H](NC(=O)[C@@H](Cc1ccccc1)NC(=O)[C@H](N)Cc1ccccc1)C(=O)N[C@H](CCCCN)C(=O)NCC1CCOCC1 [Compound (73)] | 0.0034 | 99 | 0.633 | 89 |
| CC(C)C[C@@H](NC(=O)[C@@H](Cc1ccccc1)NC(=O)[C@H](N)Cc1ccccc1)C(=O)N[C@H](CCCCN)C(=O)N1CCC(C(=O)N2CCOCC2)CC1 [Compound (29), D-Phe-D-Phe-D-Leu-D-Lys-[morpholino(piperidin-4-yl)methanone amide]] (H-[dF][dF][dL][dK][Inp]-Morpholide) | 0.0145 | 100 | 0.0464 | 86 |
| CC(C)C[C@@H](NC(=O)[C@@H](Cc1ccccc1)NC(=O)[C@H](N)Cc1ccccc1)C(=O)N[C@H](CCCN)C(=O)N1CCC(CC(=O)O)CC1 [Compound (39), D-Phe-D-Phe-D-Leu-D-Orn-[4-carboxymethyl-piperidine]-OH] | 0.12 | 99 | 0.08 | 97 |
| CC(C)C[C@@H](NC(=O)[C@H](N)Cc1ccccc1)C(=O)N[C@H](CCCN)C(=O)N[C@@H](CCCCNC(=O)[C@@H](CCCN)NC(=O)[C@@H](CC(C)C)NC(=O)[C@@H](Cc1ccccc1)NC(=O)[C@H](N)Cc1ccccc1)C(=O)O [Compound (78)] | – | 95 | 0.24 | – |
